Experimental data taken from patent publication US20090227507A1, “Angiotensin (1-7) Dosage Forms and Uses Thereof” (UNIVERSITY OF SOUTHERN CALIFORNIA, priority 2008, published 2009).

Experiments:
Format in all cases: in vivo, human
[1] = test system: CD8 cells in peripheral blood; test: Flow cytometry of peripheral blood, CD8 lymphocytes; USB003 SC once daily for 7 days in healthy men; design: key to Subjects with shift, Absolute CD8, N-L (normal to low) / Subjects with shift, Absolute CD8, L-N (low to normal) / Subjects with shift, Absolute CD8, H-N (high to normal) / Subjects with shift, Absolute CD8, N-H (normal to high): — signifies subject with no shift from baseline; details: for CD8, Absolute, Mean at Baseline: Baseline (Day 1)
Method: (§1) • Single-center, randomized, double-blind, placebo-controlled, 2 cohort dose-escalation trial of once daily dosing over a 7-day period (7 doses total): • Cohort 1: 2 subjects treated with placebo and 8 subjects treated with 200 μg/kg USB003 (A(1-7)) • Cohort 2: 2 subjects treated with placebo and 8 subjects treated with 300 μg/kg USB003 • For each cohort, there was a Screening Period, Treatment Phase, Follow-up Period, and Study Termination or Early Withdrawal Day. Subjects were confined to the study unit during the Treatment Phase. • Cohort 2 was treated approximately 1 week after completion of the Treatment Phase for Cohort 1 to allow time for the assessment of safety and tolerability in the first cohort.
(§2) Pharmacological Effect: The following evaluations (under efficacy and safety in the protocol) were performed: • Effects on the number of mature blood cells: • 1. CBC (with differential), platelet count, reticulocyte count. • Effects on early hematopoietic progenitor cells and mature lymphocyte subsets in the periphery: • 1. Flow cytometry to evaluate frequency of peripheral blood progenitor cells (eg, CD34^+) and lymphocyte subsets (eg, CD3, CD4, CD8) in peripheral blood. • 2. Collection of blood for later possible culture for progenitor cells (eg, colony forming units-granulocyte/macrophage [CFU-GM]) to evaluate potential effects on CD34^+ hematopoietic progenitor cells in peripheral blood. • 3.
(§3) The effect of USB003 on the number of mature blood cells was assessed by the complete blood count with differential, platelet and reticulocyte counts. The effects on early hematopoietic progenitor cells and mature lymphocyte subsets in the periphery were assessed by flow cytometry. In addition, blood was collected and processed to enable culture of progenitors at a later time.
(§4) Red blood cell (RBC) count, RBC indices, white blood cell count (WBC) with differential, reticulocyte count, platelet count, hemoglobin (Hb), hematocrit (Hct), plasma hemoglobin, peripheral flow cytometry, including CD34^+, flow cytometry for enumeration of CD3, CD4, and CD8 lymphocytes, and culture for progenitor cells in peripheral blood including colony-forming units-granulocyte/macrophage (CFU-GM).

[2] = Vital signs (blood pressure, pulse rate, respiration rate, oral temperature) in healthy men; details: for oral body temperature, Subject 042 / oral body temperature, Subject 046 / oral body temperature, Subject 053 / oral body temperature, Subject 055: 300 μg/kg
Method: (§5) Safety assessments during the study period included vital sign measurement (systolic [SBP] and diastolic [DBP] blood pressure, heart rate [HR], respiratory rate [RR] in the sitting position, and oral temperature), clinical chemistry, hematology, urinalysis, 12-lead electrocardiogram (ECG) in the supine position, and AE monitoring. Clinical chemistry/hematology samples were drawn within a 30-minute period prior to dosing on selected dosing days.
Vital signs were measured immediately prior to dosing, every hour for the first 6 hours post-dosing, then every 3 hours up to 12 hours post-dosing.
Vital signs, including SBP, DBP, RR, and HR were done at Screening, on each day immediately before and at 1, 3, and 6 hours after each SC injection, and at 24 hours after the last injection on Day 7. On Day 1, they were taken every hour for the first 6 hours, then every 3 hours up to 12 hours after the dose.

[3] = 12-lead electrocardiogram in healthy men; details: Screening or Study Day 8
Excerpt: as §5

[4] = test system: CD3 cells in peripheral blood; test: Flow cytometry of peripheral blood, CD3 lymphocytes; USB003 SC once daily for 7 days in healthy men; design: key to Subjects with shift, Absolute CD3, N-L (normal to low) / Subjects with shift, Absolute CD3, N-H (normal to high) / Subjects with shift, Absolute CD3, L-N (low to normal) / Subjects with shift, Absolute CD3, H-N (high to normal): — signifies subject with no shift from baseline; details: for CD3, Absolute, Mean at Baseline: Baseline (Day 1)
Method: as §1, §2, §3, §4

[5] = approximately 6 hours after Day 3 study medication

Substance: Asp-Arg-Val-Tyr-Ile-His-Pro [USB003]
- CD8, Absolute, Mean at Baseline ([1]; 200 μg/kg): 564.6 cells/μL
- Subjects with shift, Absolute CD8, H-N (high to normal) ([1]; 200 μg/kg, Baseline to Day 8): —
- Subjects with shift, Absolute CD8, L-N (low to normal) ([1]; 200 μg/kg, Baseline to Day 8): —
- Subjects with shift, Absolute CD8, N-H (normal to high) ([1]; 200 μg/kg, Baseline to Day 8): 1
- Subjects with shift, Absolute CD8, N-L (normal to low) ([1]; 200 μg/kg, Baseline to Day 8): —
- Subjects with shift, Absolute CD8, H-N (high to normal) ([1]; 200 μg/kg, Baseline to Day 20): —
- Subjects with shift, Absolute CD8, L-N (low to normal) ([1]; 200 μg/kg, Baseline to Day 20): —
- Subjects with shift, Absolute CD8, N-H (normal to high) ([1]; 200 μg/kg, Baseline to Day 20): —
- Subjects with shift, Absolute CD8, N-L (normal to low) ([1]; 200 μg/kg, Baseline to Day 20): —
- CD8, Absolute, Mean Change from Baseline ([1]; 200 μg/kg, Day 3): −34.2 cells/μL
- CD8, Absolute, Mean Change from Baseline ([1]; 200 μg/kg, Day 5): 31.9 cells/μL
- CD8, Absolute, Mean Change from Baseline ([1]; 200 μg/kg, Day 7): 0.0 cells/μL
- CD8, Absolute, Mean Change from Baseline ([1]; 200 μg/kg, Day 8): −3.3 cells/μL
- CD8, Absolute, Mean Change from Baseline ([1]; 200 μg/kg, Day 17): −52.8 cells/μL
- CD8, Absolute, Mean Change from Baseline ([1]; 200 μg/kg, Day 20): −31.7 cells/μL
- CD8, Absolute, Mean at Baseline ([1]; 300 μg/kg): 452.1 cells/μL
- Subjects with shift, Absolute CD8, H-N (high to normal) ([1]; 300 μg/kg, Baseline to Day 8): —
- Subjects with shift, Absolute CD8, L-N (low to normal) ([1]; 300 μg/kg, Baseline to Day 8): —
- Subjects with shift, Absolute CD8, N-H (normal to high) ([1]; 300 μg/kg, Baseline to Day 8): 1
- Subjects with shift, Absolute CD8, N-L (normal to low) ([1]; 300 μg/kg, Baseline to Day 8): —
- Subjects with shift, Absolute CD8, H-N (high to normal) ([1]; 300 μg/kg, Baseline to Day 20): —
- Subjects with shift, Absolute CD8, L-N (low to normal) ([1]; 300 μg/kg, Baseline to Day 20): —
- Subjects with shift, Absolute CD8, N-H (normal to high) ([1]; 300 μg/kg, Baseline to Day 20): —
- Subjects with shift, Absolute CD8, N-L (normal to low) ([1]; 300 μg/kg, Baseline to Day 20): —
- CD8, Absolute, Mean Change from Baseline ([1]; 300 μg/kg, Day 3): 59.5 cells/μL
- CD8, Absolute, Mean Change from Baseline ([1]; 300 μg/kg, Day 5): 71.0 cells/μL
- CD8, Absolute, Mean Change from Baseline ([1]; 300 μg/kg, Day 7): 93.6 cells/μL
- CD8, Absolute, Mean Change from Baseline ([1]; 300 μg/kg, Day 8): 45.1 cells/μL
- CD8, Absolute, Mean Change from Baseline ([1]; 300 μg/kg, Day 17): −47.3 cells/μL
- CD8, Absolute, Mean Change from Baseline ([1]; 300 μg/kg, Day 20): 26.8 cells/μL
- change from baseline in mean body temperatures ([2]; 300 μg/kg dose group compared to 200 μg/kg, especially 6-hour post-dose, Study Day 3): clearly notable increase
- oral body temperature, Subject 042 ([2]; Day 1, 4-hour post-dose): 37.8 °C
- oral body temperature, Subject 042 ([2]; Day 1, 9-hour post-dose): 38.1 °C
- oral body temperature, Subject 042 ([2]; Day 1, one hour after first dose): 37.4 °C
- oral body temperature, Subject 042 ([2]; Day 2, 6-hour-post-dose): 38.7 °C
- oral body temperature, Subject 042 ([2]; Day 2 pre-dose): 37.4 °C
- oral body temperature, Subject 046 ([2]; Day 2 pre-dose): 35.9 °C
- oral body temperature, Subject 046 ([2]; Day 3, 6-hour post-dose): 37.9 °C
- oral body temperature, Subject 046 ([2]; Day 4 pre-dose): 36.8 °C
- oral body temperature, Subject 053 ([2]; Day 4 pre-dose): 36.4 °C
- oral body temperature, Subject 055 ([2]; Day 4 pre-dose): 37.1 °C
- oral body temperature, Subject 053 ([2]; Day 7 pre-dose): 37.0 °C
- oral body temperature, Subject 042 ([2]; Day 8): 36.9 °C
- oral body temperature, Subject 053 [2, 5]: 37.8 °C
- oral body temperature, Subject 055 [2, 5]: 38.0 °C
- oral body temperature, Subject 053 ([2]; approximately 6 hours after Day 6 study medication): 37.9 °C
- oral body temperature, Subject 046 ([2]; approximately 7 hours and 45 minutes after first dosing): 37.8 °C
- oral body temperature, Subject 046 ([2]; approximately 14 hours after the first dose): 38.0 °C
- oral body temperature, Subject 046 ([2]; one hour after first dose): 37.3 °C
- changes from baseline for the mean RR ([2]; all measured time points): no clinically meaningful changes
- mean change in pulse rate ([2]; by 3-hour post-dose in all treatment groups, continuing in the USB003 groups at last vital sign of the day): mildly notable increase
- change in mean SBP and DBP compared to baseline ([2]; no apparent difference in dose groups): mild decrease
- 12-lead ECG findings [3]: no abnormal CS 12-lead ECGs findings
- CD3, Absolute, Mean at Baseline ([4]; 200 μg/kg): 1732.3 cells/μL
- Subjects with shift, Absolute CD3, H-N (high to normal) ([4]; 200 μg/kg, Baseline to Day 8): 1
- Subjects with shift, Absolute CD3, L-N (low to normal) ([4]; 200 μg/kg, Baseline to Day 8): —
- Subjects with shift, Absolute CD3, N-H (normal to high) ([4]; 200 μg/kg, Baseline to Day 8): —
- Subjects with shift, Absolute CD3, N-L (normal to low) ([4]; 200 μg/kg, Baseline to Day 8): —
- Subjects with shift, Absolute CD3, H-N (high to normal) ([4]; 200 μg/kg, Baseline to Day 20): 1
- Subjects with shift, Absolute CD3, L-N (low to normal) ([4]; 200 μg/kg, Baseline to Day 20): —
- Subjects with shift, Absolute CD3, N-H (normal to high) ([4]; 200 μg/kg, Baseline to Day 20): —
- Subjects with shift, Absolute CD3, N-L (normal to low) ([4]; 200 μg/kg, Baseline to Day 20): —
- CD3, Absolute, Mean Change from Baseline ([4]; 200 μg/kg, Day 3): −115.8 cells/μL
- CD3, Absolute, Mean Change from Baseline ([4]; 200 μg/kg, Day 5): 70.6 cells/μL
- CD3, Absolute, Mean Change from Baseline ([4]; 200 μg/kg, Day 7): 53.9 cells/μL
- CD3, Absolute, Mean Change from Baseline ([4]; 200 μg/kg, Day 8): −32.0 cells/μL
- CD3, Absolute, Mean Change from Baseline ([4]; 200 μg/kg, Day 11): 122.0 cells/μL
- CD3, Absolute, Mean Change from Baseline ([4]; 200 μg/kg, Day 14): 60.0 cells/μL
- CD3, Absolute, Mean Change from Baseline ([4]; 200 μg/kg, Day 17): −121.1 cells/μL
- CD3, Absolute, Mean Change from Baseline ([4]; 200 μg/kg, Day 20): −63.6 cells/μL
- increase in CD3 (pan T cell marker) during study drug administration ([4]; 300 μg/kg/day, rapidly diminished after cessation of treatment): 15-20%
- CD3, Absolute, Mean at Baseline ([4]; 300 μg/kg): 1285.5 cells/μL
- Subjects with shift, Absolute CD3, H-N (high to normal) ([4]; 300 μg/kg, Baseline to Day 8): —
- Subjects with shift, Absolute CD3, L-N (low to normal) ([4]; 300 μg/kg, Baseline to Day 8): —
- Subjects with shift, Absolute CD3, N-H (normal to high) ([4]; 300 μg/kg, Baseline to Day 8): —
- Subjects with shift, Absolute CD3, N-L (normal to low) ([4]; 300 μg/kg, Baseline to Day 8): —
- Subjects with shift, Absolute CD3, H-N (high to normal) ([4]; 300 μg/kg, Baseline to Day 20): —
- Subjects with shift, Absolute CD3, L-N (low to normal) ([4]; 300 μg/kg, Baseline to Day 20): —
- Subjects with shift, Absolute CD3, N-H (normal to high) ([4]; 300 μg/kg, Baseline to Day 20): —
- Subjects with shift, Absolute CD3, N-L (normal to low) ([4]; 300 μg/kg, Baseline to Day 20): —
- CD3, Absolute, Mean Change from Baseline ([4]; 300 μg/kg, Day 3): 167.8 cells/μL
- CD3, Absolute, Mean Change from Baseline ([4]; 300 μg/kg, Day 5): 159.8 cells/μL
- CD3, Absolute, Mean Change from Baseline ([4]; 300 μg/kg, Day 7): 229.8 cells/μL
- CD3, Absolute, Mean Change from Baseline ([4]; 300 μg/kg, Day 8): 67.1 cells/μL
- CD3, Absolute, Mean Change from Baseline ([4]; 300 μg/kg, Day 11): −63.5 cells/μL
- CD3, Absolute, Mean Change from Baseline ([4]; 300 μg/kg, Day 14): 0.3 cells/μL
- CD3, Absolute, Mean Change from Baseline ([4]; 300 μg/kg, Day 17): −87.9 cells/μL
- CD3, Absolute, Mean Change from Baseline ([4]; 300 μg/kg, Day 20): 56.9 cells/μL
